From ChEMBL document CHEMBL3396948 (Bioorg Med Chem, 2015) come the findings set out here.

Data set [1] deals with Trypanosoma brucei brucei. The data set is described as follows: Trypanocidal activity against drug-sensitive Trypanosoma brucei brucei Lab 110 EATRO assessed as inhibition of trypanosomes after 48 hrs. Format: functional, organism-based.
A further data set concerns the target Trypanothione reductase (Trypanosoma cruzi, UniProt P28593). The data set is described as follows: Inhibition of Trypanosoma cruzi trypanothione reductase assessed as reduction of trypanothione disulfide by spectrophotometrically.
In a further data set the test system is Saccharomyces cerevisiae. The data set is described as follows: Inhibition of yeast glutathione reductase assessed as reduction of glutathione disulfide up to 250 uM by spectrophotometrically.
The subject of data set [2] is Trypanosoma brucei rhodesiense. As to the kind of experiment: Trypanocidal activity against clinical isolate Trypanosoma brucei rhodesiense KETRI 269 assessed as inhibition of trypanosomes after 48 hrs. Format: functional, organism-based. The note with it: KETRI 269, 48 h.
The test system of data set [3] is Trypanosoma brucei rhodesiense. The data set is described as follows: Trypanocidal activity against pentamidine and melarsoprol-resistant Trypanosoma brucei rhodesiense K 243-As-10-3 assessed as inhibition of trypanosomes after 48 hrs. Format: functional, organism-based. The note with it: K 243-As-10-3, 48 h.
Data set [4] deals with Trypanosoma brucei brucei. The data set is described as follows: In vivo trypanocidal activity against drug-sensitive Trypanosoma brucei brucei Lab 110 EATRO infected in female Swiss-Webster mouse assessed as life prolongation at 1 to 25 mg/kg, ip once daily for 3 days relative to control. Format: functional, organism-based.
Data set [5] deals with Trypanosoma brucei rhodesiense. The data set is described as follows: Trypanocidal activity against clinical isolate Trypanosoma brucei rhodesiense KETRI 243 assessed as inhibition of trypanosomes after 48 hrs. Format: functional, organism-based. The note with it: KETRI 243, 48 h.
Data set [6] deals with Mus musculus. As to the kind of experiment: Toxicity in drug-sensitive Trypanosoma brucei brucei Lab 110 EATRO infected in female Swiss-Webster mouse assessed as death at 1 to 25 mg/kg, ip once daily for 3 days relative to control. The format is organism-based. The note with it: in vivo, 72 h. Also noted: dose 1-25 mg/kg, route intraperitoneal.
Data set [7] concerns Trypanosoma brucei brucei. The data set is described as follows: In vivo trypanocidal activity against drug-sensitive Trypanosoma brucei brucei Lab 110 EATRO infected in female Swiss-Webster mouse assessed as life prolongation at 50 mg/kg, ip administered in 2 daily doses for 3 days relative to control. Format: functional, organism-based. Also noted: dose 50 mg/kg.
Data set [8] deals with Mus musculus. As to the kind of experiment: Toxicity in drug-sensitive Trypanosoma brucei brucei Lab 110 EATRO infected in female Swiss-Webster mouse assessed as death at 50 mg/kg, ip once daily for 3 days relative to control. The format is organism-based. The note with it: in vivo, 72 h. Also noted: dose 50 mg/kg, route intraperitoneal.
The subject of another data set is Trypanosoma brucei. As to the kind of experiment: Trypanocidal activity against bloodstream form of Trypanosoma brucei assessed as inhibition of trypanosomes after 48 hrs. Format: functional, organism-based.

Molecules are shown by their SMILES. Activity calls are given as the source filed them. The rule behind the calls is not given here.

Sequence of Trypanothione reductase (P28593 whole entry): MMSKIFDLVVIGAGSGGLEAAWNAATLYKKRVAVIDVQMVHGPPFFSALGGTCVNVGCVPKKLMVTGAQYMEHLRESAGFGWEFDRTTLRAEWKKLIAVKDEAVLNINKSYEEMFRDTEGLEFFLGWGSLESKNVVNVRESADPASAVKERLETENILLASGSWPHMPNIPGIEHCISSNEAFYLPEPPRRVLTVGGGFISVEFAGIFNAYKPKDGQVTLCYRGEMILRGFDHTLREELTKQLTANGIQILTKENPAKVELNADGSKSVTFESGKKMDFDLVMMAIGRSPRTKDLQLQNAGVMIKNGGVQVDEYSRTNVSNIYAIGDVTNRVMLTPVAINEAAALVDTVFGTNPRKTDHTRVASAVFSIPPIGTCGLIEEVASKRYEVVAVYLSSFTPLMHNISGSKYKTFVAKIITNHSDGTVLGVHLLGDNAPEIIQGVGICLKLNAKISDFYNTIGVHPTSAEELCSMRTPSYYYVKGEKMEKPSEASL

By IC50 is commonly meant the concentration needed to halve the response being measured. As usually defined, the Ki is the equilibrium dissociation constant of an inhibitor or competing ligand from its target. Turning to `CN(C)CCCNC1c2ccccc2CCc2ccccc21`, the IC50 in data set [1] was 1.38 µM. In addition, the Ki at Trypanothione reductase was 81.6 µM. Also, the inhibition entry in the data set on Saccharomyces cerevisiae is “inactive”.

Take `NCCN(CCN)C1c2ccccc2CCc2ccccc21`: the 50% inhibitory concentration (IC50) in [1] amounted to 2.8 µM. In addition, at Trypanothione reductase, the Ki is 27.9 µM. Further, the inhibition entry in the data set on Saccharomyces cerevisiae is “inactive”.

Regarding `NCCCCN(CCCN)C1c2ccccc2CCc2ccccc21`, the IC50 in data set [2] stood at 4.3 µM; in data set [1], 0.62 µM; in data set [3], 8.3 µM; in [5], 4.5 µM. Further, at Trypanothione reductase, the Ki came out at 4 µM. For the same compound, the outcome in data set [4] was inactive. Further, the Activity result in the data set with Mus musculus [6] is “Toxic”. Also, the inhibition result in the data set on Saccharomyces cerevisiae is “inactive”.

For `NCCCN(CCCCN(CCCN)C1c2ccccc2CCc2ccccc21)C1c2ccccc2CCc2ccccc21`, the IC50 in [2] was found to be 1.69 µM; in [1] it was 2.55 µM; in data set [3], 22 µM; in data set [5] it was 1.5 µM. Also, the outcome in [7] was Active. The Ki on Trypanothione reductase is 0.255 µM. In addition, the inhibition result in the data set on Saccharomyces cerevisiae is “inactive”. For the same compound, in the data set on Mus musculus [8], the Activity entry was “Toxic”.

One may read the EC50 as the concentration at which the effect is half-maximal. Consider `CN(C)CCCN1c2ccccc2CCc2ccc(Cl)cc21` [CLOMIPRAMINE], for which, in the data set on Saccharomyces cerevisiae, the inhibition entry is “inactive”. Also, the concentration giving a half-maximal response (EC50) in the data set on Trypanosoma brucei amounted to 5.05 µM.

With `NCCCN(CCCN)C1c2ccccc2CCc2ccccc21`, the Ki at Trypanothione reductase was determined as 7.62 µM. The inhibition entry with Saccharomyces cerevisiae was “inactive”.

Turning to `CN(C)CCNC1c2ccccc2CCc2ccccc21`, the values for the IC50 in data set [1] and in data set [5] were 1.68 µM and 2 µM, respectively. Also, the Ki at Trypanothione reductase came out at 136 µM. Moreover, the inhibition entry in the data set with Saccharomyces cerevisiae was “inactive”.
